We go through 31 molecules from patent US9315491B2 (DEVELOPMENT CENTER FOR BIOTECHNOLOGY, priority 2009, dated 2016).

Each structure is given as a SMILES string.

The target of this assay is recombinant mTOR (Homo sapiens (Human), UniProt P42345). Description: mTOR kinase assay (33P incorporation into 4EBP1). The conditions noted are these: compound at 10 μM, 10 μM ATP. The format is biochemical. On the procedure:
The activity of the compound against mTOR was examined by measuring the incorporation of ^33P from [γ-^33P]-ATP into 4EBP1. His-tagged, recombinant human 4EBP1 was expressed in E. coli, purified by nickel-nitrilotriacetic acid (Ni-NTA) resins, and stored at −80° C. Phosphorylation of 4EBP1 by mTOR was assayed in the presence or absence of the compound and performed in a final volume of 25 μl reaction buffer containing 300 ng 4EBP1, 50 ng recombinant mTOR (Invitrogen), 50 mM HEPES (pH 7.5), 1 mM EGTA, 0.01% Polysorbate 20, 10 mM MnCl2, 2.5 mM DTT, 10 μM ATP, and 0.5 μCi [γ-33P]-ATP (PerkinElmir) for 30 min at 30° C. The reactions were terminated by adding 3% phosphoric acid. The ^33P labeled 4EBP1 was transferred onto UniFilter-96 GF/B plate (PerkinElmer) and quantified by Top Count Microplate Scintillation Counter (PerkinElmer). For primary screening of kinase activity inhibition, each test compound was evaluated at […] in duplicate. […] The IC50 values of the compounds were determined after carrying out assays at eight serially diluted concentrations of each compound in duplicate. The results were analyzed using linear regression software (GraphPad Prism 5; GraphPad Software Inc.).
IC50 value is defined as the concentration of the test compound which achieves a half-maximal inhibition of the kinase activity.

Sequence of recombinant mTOR (P42345 1360-2549): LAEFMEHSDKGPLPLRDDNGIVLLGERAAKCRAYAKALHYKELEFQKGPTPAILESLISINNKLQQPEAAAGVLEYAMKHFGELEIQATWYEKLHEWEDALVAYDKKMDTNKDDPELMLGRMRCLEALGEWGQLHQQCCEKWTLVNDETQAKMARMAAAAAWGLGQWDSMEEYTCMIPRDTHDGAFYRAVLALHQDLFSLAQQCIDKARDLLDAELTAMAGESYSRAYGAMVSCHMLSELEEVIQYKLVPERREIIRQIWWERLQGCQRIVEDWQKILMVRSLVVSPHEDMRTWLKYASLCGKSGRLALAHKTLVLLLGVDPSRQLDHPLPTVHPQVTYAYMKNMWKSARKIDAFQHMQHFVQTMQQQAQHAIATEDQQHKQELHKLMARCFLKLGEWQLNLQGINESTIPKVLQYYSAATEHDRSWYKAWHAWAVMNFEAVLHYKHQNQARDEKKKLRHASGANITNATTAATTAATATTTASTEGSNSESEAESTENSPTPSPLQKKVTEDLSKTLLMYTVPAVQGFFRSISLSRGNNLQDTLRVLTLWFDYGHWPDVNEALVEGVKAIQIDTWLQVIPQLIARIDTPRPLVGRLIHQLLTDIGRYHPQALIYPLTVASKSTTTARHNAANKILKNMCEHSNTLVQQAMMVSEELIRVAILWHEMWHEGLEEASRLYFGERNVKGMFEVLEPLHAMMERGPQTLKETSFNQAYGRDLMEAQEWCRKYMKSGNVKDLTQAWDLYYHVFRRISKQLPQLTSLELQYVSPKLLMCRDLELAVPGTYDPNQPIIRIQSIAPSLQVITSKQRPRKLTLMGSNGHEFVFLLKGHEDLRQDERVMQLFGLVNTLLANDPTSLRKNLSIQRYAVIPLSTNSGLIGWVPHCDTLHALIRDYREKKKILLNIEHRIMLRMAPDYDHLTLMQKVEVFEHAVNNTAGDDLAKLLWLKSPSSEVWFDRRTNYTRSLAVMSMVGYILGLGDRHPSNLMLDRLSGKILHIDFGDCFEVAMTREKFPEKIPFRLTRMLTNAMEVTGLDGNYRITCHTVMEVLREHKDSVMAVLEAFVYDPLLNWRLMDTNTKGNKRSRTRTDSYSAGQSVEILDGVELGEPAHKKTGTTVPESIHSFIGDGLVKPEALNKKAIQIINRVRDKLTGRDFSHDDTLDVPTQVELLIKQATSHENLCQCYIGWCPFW

Broadly, the inhibition is the share of the control response that was lost under treatment. Turning to `COc1cnc(-c2ccc(NC(=O)Nc3ccc(S(C)(=O)=O)cc3)cc2)nc1N1CCOCC1` [MTR-0470, 1-(4-Methanesulfonyl-phenyl)-3-[4-(5-methoxy-4-morpholin-4-yl-pyrimidin-2-yl)-phenyl]-urea], the inhibition at 10 µM stood at 88%.

For the molecule `CSc1c(Cl)nc(-c2ccc(O)cc2)nc1N1CCOCC1` [MTR-0098, 4-(4-Chloro-5-methylsulfanyl-6-morpholin-4-yl-pyrimidin-2-yl)-phenol], the inhibition at 10 µM came out at 86%.

For `CSc1c(Cl)nc(-c2cnc(N)nc2)nc1N1CCOCC1` [MTR-0373, 6-Chloro-5-methylsulfanyl-4-morpholin-4-yl-[2,5′]bipyrimidinyl-2′-ylamine], the inhibition at 10 µM came out at 81%.

Take `CSc1cnc(-c2ccc(NC(=O)Nc3ccc(OCCN(C)C)cc3)cc2)nc1N1CCOCC1` [MTR-0343, 1-[4-(2-Dimethylamino-ethoxy)-phenyl]-3-[4-(5-methylsulfanyl-4-morpholin-4-yl-pyrimidin-2-yl)-phenyl]-urea]: the inhibition at 10 µM was found to be 92%.

With `CSc1c(Cl)nc(-c2ccc(NC(N)=O)c(F)c2)nc1N1CCOCC1` [MTR-0356, [4-(4-Chloro-5-methylsulfanyl-6-morpholin-4-yl-pyrimidin-2-yl)-2-fluoro-phenyl]-urea], the inhibition at 10 µM came out at 82%.

`CCOC(=O)c1nc(-c2ccc(NC(=O)Nc3ccc(N4CCN(C)CC4)nc3)cc2)nc(N2CCOCC2)c1OCC` [MTR-0275, 5-Ethoxy-2-(4-{3-[6-(4-methyl-piperazin-1-yl)-pyridin-3-yl]-ureido}-phenyl)-6-morpholin-4-yl-pyrimidine-4-carboxylic acid ethyl ester]: the inhibition at 10 µM turned out to be 97%.

For `CSc1c(Cl)nc(-c2ccc(NC(=O)Nc3ccc4c(c3)OCO4)cc2)nc1N1CCOCC1` [MTR-0256, 1-Benzo[1,3]dioxol-5-yl-3-[4-(4-chloro-5-methylsulfanyl-6-morpholin-4-yl-pyrimidin-2-yl)-phenyl]-urea], the inhibition at 10 µM worked out at 90%.

As for `CCOC(=O)c1nc(-c2ccc3[nH]ccc3c2)nc(N2CCOCC2)c1OCC` [MTR-0054, 5-Ethoxy-2-(1H-indol-5-yl)-6-morpholin-4-yl-pyrimidine-4-carboxylic acid ethyl ester], the inhibition at 10 µM was 81%.

`CCOc1c(C(N)=O)nc(-c2ccc(NC(=O)Nc3ccccc3)cc2)nc1N1CCOCC1` [MTR-0125, 5-Ethoxy-6-morpholin-4-yl-2-[4-(3-phenyl-ureido)-phenyl]-pyrimidine-4-carboxylic acid amide]: the inhibition at 10 µM was determined as 96%.

Take `CCOC(=O)c1nc(-c2ccc(NC(=O)Nc3ccc(N4CCOCC4)nc3)cc2)nc(N2CCOCC2)c1OCC` [MTR-0276, 5-Ethoxy-6-morpholin-4-yl-2-{4-[3-(6-morpholin-4-yl-pyridin-3-yl)-ureido]-phenyl}-pyrimidine-4-carboxylic acid ethyl ester]: the inhibition at 10 µM is 82%.

`CSc1c(Cl)nc(-c2ccc(NC(=O)Nc3cccc(F)c3)cc2)nc1N1CCOCC1` [MTR-0137, 1-[4-(4-Chloro-5-methylsulfanyl-6-morpholin-4-yl-pyrimidin-2-yl)-phenyl]-3-(3-fluoro-phenyl)-urea]: the inhibition at 10 µM worked out at 84%.

On to `CSc1c(Cl)nc(-c2ccc(NC(=O)Nc3ccc(S(=O)(=O)N4CCOCC4)cc3)cc2)nc1N1CCOCC1` [MTR-0435, 1-[4-(4-Chloro-5-methylsulfanyl-6-morpholin-4-yl-pyrimidin-2-yl)-phenyl]-3-[4-(morpholine-4-sulfonyl)-phenyl]-urea], for which the inhibition at 10 µM was 90%.

Take `CSc1c(-c2ccncc2)nc(-c2ccc(NC(=O)Nc3ccon3)cc2)nc1N1CCOCC1` [MTR-0485, 1-Isoxazol-3-yl-3-[4-(5-methylsulfanyl-4-morpholin-4-yl-6-pyridin-4-yl-pyrimidin-2-yl)-phenyl]-urea]: the inhibition at 10 µM amounted to 100%.

In the case of `CCOC(=O)c1nc(-c2ccc(NC(N)=O)cc2)nc(N2CCOCC2)c1OCC` [MTR-0121, 5-Ethoxy-6-morpholin-4-yl-2-(4-ureido-phenyl)-pyrimidine-4-carboxylic acid ethyl ester], the inhibition at 10 µM amounted to 94%.

Consider `COc1cnc(-c2ccc(NC(=O)Nc3ccc(NC(C)=O)nc3)cc2)nc1N1CCOCC1` [MTR-0486, N-(5-{3-[4-(5-Methoxy-4-morpholin-4-yl-pyrimidin-2-yl)-phenyl]-ureido}-pyridin-2-yl)-acetamide], for which the inhibition at 10 µM was determined as 88%.

`CCOC(=O)c1nc(-c2ccc(NC(=S)Nc3ccccc3)cc2)nc(N2CCOCC2)c1OCC` [MTR-0102, 5-Ethoxy-6-morpholin-4-yl-2-[4-(3-phenyl-thioureido)-phenyl]-pyrimidine-4-carboxylic acid ethyl ester]: the inhibition at 10 µM amounted to 81%.

On to `CCOc1c(Cl)nc(-c2ccc(NC(=O)Nc3ccc(N4CCOCC4=O)cc3)cc2)nc1N1CCOCC1` [MTR-0494, 1-[4-(4-Chloro-5-ethoxy-6-morpholin-4-yl-pyrimidin-2-yl)-phenyl]-3-[4-(3-oxo-morpholin-4-yl)-phenyl]-urea], for which the inhibition at 10 µM was 86%.

For the molecule `CSc1cnc(-c2ccc(NC(=S)Nc3ccc(N4CCOCC4=O)cc3)cc2)nc1N1CCOCC1` [MTR-0319, 1-[4-(5-Methylsulfanyl-4-morpholin-4-yl-pyrimidin-2-yl)-phenyl]-3-[4-(3-oxo-morpholin-4-yl)-phenyl]-thiourea], the inhibition at 10 µM was found to be 84%.

With `CSc1c(Cl)nc(-c2ccc(NC(=S)Nc3ccc(N4CCOCC4=O)cc3)cc2)nc1N1CCOCC1` [MTR-0304, 1-[4-(4-Chloro-5-methylsulfanyl-6-morpholin-4-yl-pyrimidin-2-yl)-phenyl]-3-[4-(3-oxo-morpholin-4-yl)-phenyl]-thiourea], the inhibition at 10 µM turned out to be 90%.

Turning to `CCOC(=O)c1ccc(NC(=O)Nc2ccc(-c3ncc(SC)c(N4CCOCC4)n3)cc2)cc1` [MTR-0264, 4-{3-[4-(5-Methylsulfanyl-4-morpholin-4-yl-pyrimidin-2-yl)-phenyl]-ureido}-benzoic acid ethyl ester], the inhibition at 10 µM turned out to be 86%.

For the molecule `CCOC(=O)c1nc(-c2ccc(NC(=O)Nc3ccc(C(N)=O)cc3)cc2F)nc(N2CCOCC2)c1OCC` [MTR-0345, 2-{4-[3-(4-Carbamoyl-phenyl)-ureido]-2-fluoro-phenyl}-5-ethoxy-6-morpholin-4-yl-pyrimidine-4-carboxylic acid ethyl ester], the inhibition at 10 µM was 95%.

For `COc1cnc(-c2ccc(NC(=S)Nc3ccc(F)cc3)cc2)nc1N1CCOCC1`, the inhibition at 10 µM worked out at 89%.

Turning to `CSc1c(Cl)nc(-c2ccc(NC(=O)O)cc2)nc1N1CCOCC1` [MTR-0307, [4-(4-Chloro-5-methylsulfanyl-6-morpholin-4-yl-pyrimidin-2-yl)-phenyl]-carbamic acid], the inhibition at 10 µM is 82%.

In the case of `CCOc1c(C(=O)NCCN2CCOCC2)nc(-c2ccc(NC(=O)Nc3ccccc3)cc2)nc1N1CCOCC1` [MTR-0139, 5-Ethoxy-6-morpholin-4-yl-2-[4-(3-phenyl-ureido)-phenyl]-pyrimidine-4-carboxylic acid (2-morpholin-4-yl-ethyl)-amide], the inhibition at 10 µM worked out at 85%.

Regarding `CSc1cnc(-c2ccc(Nc3nc4ccccc4[nH]3)cc2)nc1N1CCOCC1` [MTR-0289, (1H-Benzoimidazol-2-yl)-[4-(5-methylsulfanyl-4-morpholin-4-yl-pyrimidin-2-yl)-phenyl]-amine], the inhibition at 10 µM stood at 91%.

For `CCOC(=O)c1nc(-c2cccc(O)c2)nc(N2CCOCC2)c1OCC` [MTR-0037, 5-Ethoxy-2-(3-hydroxy-phenyl)-6-morpholin-4-yl-pyrimidine-4-carboxylic acid ethyl ester], the inhibition at 10 µM is 98%.

On to `COc1cnc(-c2ccc(NC(=O)Nc3ccc(N4CCN(C)CC4)nc3)cc2)nc1N1CCOCC1` [MTR-0338, 1-[4-(5-Methoxy-4-morpholin-4-yl-pyrimidin-2-yl)-phenyl]-3-[6-(4-methyl-piperazin-1-yl)-pyridin-3-yl]-urea], for which the inhibition at 10 µM came out at 94%.

Consider `CCOc1c(C(=O)N(CC)CC)nc(-c2ccc(NC(=O)Nc3ccccc3)cc2)nc1N1CCOCC1` [MTR-0120, 5-Ethoxy-6-morpholin-4-yl-2-[4-(3-phenyl-ureido)-phenyl]-pyrimidine-4-carboxylic acid diethylamide], for which the inhibition at 10 µM was 98%.

Take `COc1cnc(-c2ccc(NC(=O)Nc3ccc(N4CCOCC4=O)cc3)cc2)nc1-c1ccncc1` [MTR-0474, 1-[4-(5-Methoxy-4-pyridin-4-yl-pyrimidin-2-yl)-phenyl]-3-[4-(3-oxo-morpholin-4-yl)-phenyl]-urea]: the inhibition at 10 µM was determined as 88%.

As to `COc1cnc(-c2ccc(NC(=O)Nc3ccc(OCCN(C)C)cc3)cc2)nc1N1CCOCC1` [MTR-0312, 1-[4-(2-Dimethylamino-ethoxy)-phenyl]-3-[4-(5-methoxy-4-morpholin-4-yl-pyrimidin-2-yl)-phenyl]-urea], the inhibition at 10 µM is 94%.

In the case of `CCOC(=O)c1nc(-c2ccc(NC(=O)Nc3ccc(F)c(F)c3)cc2)nc(N2CCOCC2)c1OCC` [MTR-0150, 2-{4-[3-(3,4-Difluoro-phenyl)-ureido]-phenyl}-5-ethoxy-6-morpholin-4-yl-pyrimidine-4-carboxylic acid ethyl ester], the inhibition at 10 µM was determined as 87%.
